In PMC11796369, “Genetic and biochemical characterization of a radical SAM enzyme required for post-translational glutamine methylation of methyl-coenzyme M reductase” (mBio, 2025):

Target: T1, MmMgmA (Methanothermobacter marburgensis, UniProt D9PY35)
T1 construct: gene MTBMA_c15540; full-length; E. coli BL21(DE3) from codon-optimised gene in pET28a, reconstituted with 4Fe-4S and cobalamin (structure, kinetics); also TAP-tagged from M. acetivorans (native cobamide, peptide assay)
T1 sequence (D9PY35 1-430): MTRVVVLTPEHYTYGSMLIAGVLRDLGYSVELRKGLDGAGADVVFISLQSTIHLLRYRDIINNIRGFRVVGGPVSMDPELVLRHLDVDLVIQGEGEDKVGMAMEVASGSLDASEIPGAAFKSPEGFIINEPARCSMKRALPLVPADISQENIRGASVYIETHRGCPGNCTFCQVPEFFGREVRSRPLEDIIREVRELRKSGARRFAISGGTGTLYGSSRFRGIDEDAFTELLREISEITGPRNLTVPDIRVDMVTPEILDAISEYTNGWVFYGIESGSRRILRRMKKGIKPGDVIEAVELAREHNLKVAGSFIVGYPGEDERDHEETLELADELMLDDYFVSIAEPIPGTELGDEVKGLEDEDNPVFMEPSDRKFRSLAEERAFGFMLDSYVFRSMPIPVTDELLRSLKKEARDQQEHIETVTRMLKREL
Test: UHPLC-MS of […]'-dAH and SAH
Assay type: biochemical
Settings: reconstituted enzyme; 500 µM SAM, 200 µM McrA peptide, 2 mM Ti citrate, 250 mM KCl, 50 mM HEPES pH 7.5

Compound: C[S+](CC[C@H](N)C(=O)O)C[C@H]1O[C@@H](n2cnc3c(N)ncnc32)[C@H](O)[C@@H]1O (stereo partly shown) [SAM]
- UHPLC-MS of 5'-dAH and SAH: The reconstituted enzyme was highly active
